Measured values: EP4810486A1, “CRYSTAL OF HETEROCYCLIC DERIVATIVE” (Nippon Shinyaku Co., Ltd., priority 2023, dated 2025)

Tests used:
Assay type in all cases: physicochemical
[1] = Stability evaluation on exposure to heating, light or humidifying stimulus (HPLC)
Experimental: The Form-I crystal of the p-TsOH salt of the compound A and the free form crystal of the compound A prepared according to the method described in PATENT DOCUMENT 1 were exposed to heating stimulus (allowed to stand at 60°C for 24 hours), light stimulus (light source: D65 lamp, total intensity: 1.2 million lx·hr), or humidifying stimulus (allowed to stand at 30°C and a relative humidity of 90% for 24 hours), and the stability thereof was evaluated based on the percentage (%) of the area of the peak of the free form of the compound A or the Form-I crystal of the p-TsOH salt of the compound A in the observed peaks in HPLC with and without exposure to the stimuli.

[2] = Stability of Form-I crystal in various solvents (X-ray powder diffraction); conditions: pulverized crystal in methanol, ethyl acetate or methyl ethyl ketone, 40°C, 115 hours
Experimental: In order to facilitate the transition of the crystal form by a solvent, the Form-I crystal of the p-TsOH salt of the compound A was pulverized in a mortar. The obtained pulverized material was added to methanol, ethyl acetate, or methyl ethyl ketone, and the mixture was stirred at 40°C for 115 hours. After stirring, the crystal form of the p-TsOH salt of the compound A in the solution was examined by X-ray powder diffraction, and the results are shown in FIG. 28.

[3] = Stability test of Form-I crystal when mixed with excipient (40°C, 75% relative humidity, open system; HPLC and visual inspection); conditions: for observation of the color of the crystal: crystal only and all excipient mixtures, visual inspection
Experimental: The Form-I crystal of the p-TsOH salt of the compound A was mixed with each of various excipients at a mass ratio of 1:1 using a mortar, was allowed to stand in a thermo-hygrostat at a temperature of 40°C and a relative humidity of 75% in an open system for 2 weeks or 1 month, and then evaluated for the presence/absence of decomposition using HPLC and checked for color change by visual inspection. The stability of only the Form-I crystal of the p-TsOH salt of the compound A was also evaluated as a reference. The conditions for HPLC are as follows. • Instrument: SHIMADZU LC-2010 CHT • Column: COSMOSIL 3C18-MSII 4.6×100 mm • Column temperature: 40°C • Mobile phase: Liquid A; MeCN/H2O/MsOH = 600/400/1 Liquid B: MeCN/H2O/MsOH = 900/100/1 • Gradient: 0-8 min; A = 100% • 8-10 min; A to B • 10-20 min; B = 100% • 20-21 min; B to A • Flow rate: 0.5 mL/min • Wavelength: 230 nm
The results of the percentage (%) of the area of the peak of the Form-I crystal of the p-TsOH salt of the compound A in the observed peaks in HPLC and observation of the color of the crystal are shown in Table 3. According to Table 3, no decomposition of the Form-I crystal of the p-TsOH salt of the compound A was observed under the conditions of mixing with any of the excipients, and no color change occurred. […]

[4] = Relative stability of Form-I to Form-III crystals: pairs stirred in acetone (X-ray powder diffraction); conditions: pairs at mass ratio 1:1 in acetone, 30°C, 42 hours
Experimental: The Form-I crystal and the Form-II crystal of the p-TsOH salt of the compound A, the Form-I crystal and the Form-III crystal of the p-TsOH salt of the compound A, or the Form-II crystal and the Form-III crystal of the p-TsOH salt of the compound A were added to acetone at a mass ratio of 1:1, and the mixture was stirred at 30°C for 42 hours. Then, the crystal form of the p-TsOH salt of the compound A in the solution was examined by X-ray powder diffraction, and as a result, under all the three conditions, each of the crystals of the p-TsOH salt of the compound A in the solution transitioned to a Form-I crystal.

[5] = Thermal stability of Form-II crystal (X-ray powder diffraction while heating and cooling); conditions: heated to 30°C, 150°C, 200°C, then cooled to 150°C and 30°C
Experimental: Therefore, for the Form-II crystal of the p-TsOH salt of the compound A, the crystal form was examined by X-ray powder diffraction while increasing the temperature to 30°C, 150°C, and 200°C, and then the crystal form was further examined by X-ray powder diffraction while cooling to 150°C and 30°C.

[6] = Relative stability between crystals: six forms stirred together in DMF/toluene (X-ray powder diffraction); conditions: Form-I, III, IV, V, VI, VII, 100 mg each, in DMF/toluene 1:9, stirred at 20°C or 55°C
Experimental: The crystals of the p-TsOH salt of the compound A prepared in Examples 1 to 3 and Comparative Examples 1 to 3 were each weighed in 100 mg, a total of 600 mg was added to 30 mL of a mixed solvent of DMF and toluene having a volume ratio of 1:9, and the mixture was stirred at 20°C or 55°C. After 3, 4, 7, and 8 days from the start of stirring at 20°C, and after 3 and 4 days from the start of stirring at 55°C, the crystal form of the p-TsOH salt of the compound A in the mixed solution was measured by X-ray powder diffraction.

[7] = Stability test of Form-III crystal at 40°C and 75% relative humidity; conditions: relative humidity 75%
Experimental: About 10 mg of the Form-III crystal of the p-TsOH salt of the compound A obtained in Example 2 was allowed to stand at 40°C and a relative humidity of 75% for 7 days or longer, and as a result, the Form-III crystal of the p-TsOH salt of the compound A was able to exist stably for 7 days or longer.

[8] = Differential thermal analysis and thermogravimetric analysis (TG/DTA); conditions: heating rate 10.0°C/min, nitrogen
Experimental: TG/DTA in Examples 1 to 11 was measured by TG-8120 (manufactured by Rigaku Corporation) (cell: alumina (open), gas: nitrogen, heating rate: 10.0°C/min, hold temperature: 300°C, hold time: 0 min) unless otherwise specified.
The results of differential scanning calorimetry (DSC) of the Form-I crystal of the p-TsOH salt of the compound A are shown in FIG. 2. The results of thermophysical property measurement by differential thermal analysis (DTA) and thermogravimetric analysis (TGA) of the Form-I crystal of the p-TsOH salt of the compound A are shown in FIG. 3.

[9] = Stability of crystal form on mechanical stimulus and water (X-ray powder diffraction); conditions: pulverized, water-treated, stored at 30°C, relative humidity 90%, tableted (2,000 kgf × 30 min)
Experimental: X-ray powder diffraction measurement was performed for a crystal (pulverized) obtained by pulverizing the Form-I crystal of the p-TsOH salt of the compound A in a mortar, a crystal (water-treated) obtained by kneading the Form-I crystal of the p-TsOH salt of the compound A after adding water, a sample of the Form-I crystal of the p-TsOH salt of the compound A stored under a humidifying stimulus condition (30°C, relative humidity of 90%), and a sample obtained by tableting the Form-I crystal of the p-TsOH salt of the compound A (2,000 kgf × 30 min). The results are shown in FIG. 24 together with the results of the Form-I crystal of the p-TsOH salt of the compound A not undergoing any treatment (untreated).

[10] = Crystal form transition on heating (relative stability of crystal forms)
Experimental: The Form-V crystal of the p-TsOH salt of the compound A obtained in Comparative Example 1 was heated at 205°C for 10 minutes, and as a result, a Form-III crystal of the p-TsOH salt of the compound A was obtained.
The Form-VI crystal of the p-TsOH salt of the compound A obtained in Comparative Example 2 was heated at 190°C for 10 minutes, and as a result, a Form-III crystal of the p-TsOH salt of the compound A was obtained.

[11] = Crystal form transition on standing at 40°C and 75% relative humidity (relative stability); conditions: 1/2 acetonitrile solvate crystal at 40°C, relative humidity 75%, 7 days gave Form-IV crystal
Experimental: About 10 mg of the 1/2 acetonitrile solvate crystal of the p-TsOH salt of the compound A obtained in Example 3 was allowed to stand at 40°C and a relative humidity of 75% for 7 days, and as a result, a Form-IV crystal of the p-TsOH salt of the compound A was obtained.

[12] = Heating stimulus: 60°C for 24 hours
[13] = Humidifying stimulus: 30°C, relative humidity 90%, 24 hours
[14] = Light stimulus: D65 lamp, total intensity 1.2 million lx·hr

COCc1nc2c(C(=O)Nc3cccc(Cl)c3C)cc(NC(=O)c3ccccc3C(F)(F)F)cc2[nH]1 [Free form of compound A, N-(3-chloro-2-methylphenyl)-2-(methoxymethyl)-6-({[2-(trifluoromethyl)phenyl]carbonyl}amino)-1H-benzimidazole-4-carboxamide]
percentage (%) of the area of the peak in the observed peaks in HPLC [1, 12]: 99.76% | percentage (%) of the area of the peak in the observed peaks in HPLC [1, 13]: 99.76% | percentage (%) of the area of the peak in the observed peaks in HPLC [1, 14]: 99.74% | percentage (%) of the area of the peak in the observed peaks in HPLC ([1]; No stimulus): 99.78%

COCc1nc2c(C(=O)Nc3cccc(Cl)c3C)cc(NC(=O)c3ccccc3C(F)(F)F)cc2[nH]1.Cc1ccc(S(=O)(=O)O)cc1 [N-(3-chloro-2-methylphenyl)-2-(methoxymethyl)-6-({[2-(trifluoromethyl)phenyl]carbonyl}amino)-1H-benzimidazole-4-carboxamide 4-methylbenzenesulfonate]
change in crystal form [2]: no change in crystal form was observed under any of the conditions | percentage (%) of the area of the peak in the observed peaks in HPLC [1, 12]: 99.69% | percentage (%) of the area of the peak in the observed peaks in HPLC [1, 13]: 99.68% | percentage (%) of the area of the peak in the observed peaks in HPLC [1, 14]: 99.72% | percentage (%) of the area of the peak in the observed peaks in HPLC ([1]; No stimulus): 99.70% | change in the color of the crystal ([1]; after exposure to heating, light or humidifying stimulus): no change in the color of the crystal was observed | percentage (%) of the area of the peak of the Form-I crystal of the p-TsOH salt of the compound A in the observed peaks in HPLC ([3]; Crystal only, 1 month at 40°C, relative humidity 75%, open system): 99.68% | percentage (%) of the area of the peak of the Form-I crystal of the p-TsOH salt of the compound A in the observed peaks in HPLC ([3]; Crystal only, 2 weeks at 40°C, relative humidity 75%, open system): 99.70% | percentage (%) of the area of the peak of the Form-I crystal of the p-TsOH salt of the compound A in the observed peaks in HPLC ([3]; Crystal only, immediately after mixing): 99.71% | observation of the color of the crystal ([3]; 1 month at 40°C, relative humidity 75%): No color change under any conditions | observation of the color of the crystal ([3]; 2 weeks at 40°C, relative humidity 75%): No color change under any conditions | percentage (%) of the area of the peak of the Form-I crystal of the p-TsOH salt of the compound A in the observed peaks in HPLC ([3]; mixed 1:1 with Corn starch, 1 month at 40°C, relative humidity 75%): 99.66% | percentage (%) of the area of the peak of the Form-I crystal of the p-TsOH salt of the compound A in the observed peaks in HPLC ([3]; mixed 1:1 with Corn starch, 2 weeks at 40°C, relative humidity 75%): 99.66% | percentage (%) of the area of the peak of the Form-I crystal of the p-TsOH salt of the compound A in the observed peaks in HPLC ([3]; mixed 1:1 with Corn starch, immediately after mixing): 99.71% | percentage (%) of the area of the peak of the Form-I crystal of the p-TsOH salt of the compound A in the observed peaks in HPLC ([3]; mixed 1:1 with Crystalline cellulose, 1 month at 40°C, relative humidity 75%): 99.69% | percentage (%) of the area of the peak of the Form-I crystal of the p-TsOH salt of the compound A in the observed peaks in HPLC ([3]; mixed 1:1 with Crystalline cellulose, 2 weeks at 40°C, relative humidity 75%): 99.65% | percentage (%) of the area of the peak of the Form-I crystal of the p-TsOH salt of the compound A in the observed peaks in HPLC ([3]; mixed 1:1 with Crystalline cellulose, immediately after mixing): 99.73% | percentage (%) of the area of the peak of the Form-I crystal of the p-TsOH salt of the compound A in the observed peaks in HPLC ([3]; mixed 1:1 with D-Mannitol, 1 month at 40°C, relative humidity 75%): 99.71% | percentage (%) of the area of the peak of the Form-I crystal of the p-TsOH salt of the compound A in the observed peaks in HPLC ([3]; mixed 1:1 with D-Mannitol, 2 weeks at 40°C, relative humidity 75%): 99.70% | percentage (%) of the area of the peak of the Form-I crystal of the p-TsOH salt of the compound A in the observed peaks in HPLC ([3]; mixed 1:1 with D-Mannitol, immediately after mixing): 99.63% | percentage (%) of the area of the peak of the Form-I crystal of the p-TsOH salt of the compound A in the observed peaks in HPLC ([3]; mixed 1:1 with Lactose, 1 month at 40°C, relative humidity 75%): 99.58% | percentage (%) of the area of the peak of the Form-I crystal of the p-TsOH salt of the compound A in the observed peaks in HPLC ([3]; mixed 1:1 with Lactose, 2 weeks at 40°C, relative humidity 75%): 99.74% | percentage (%) of the area of the peak of the Form-I crystal of the p-TsOH salt of the compound A in the observed peaks in HPLC ([3]; mixed 1:1 with Lactose, immediately after mixing): 99.64% | most stable form among Form-I, Form-II and Form-III crystals [4]: the most stable form | stability against heat [5]: rather stable against heat | most stable form among the crystals [6]: the most stable form | time for which the crystal was able to exist stably [7]: ≥ 7 days | thermal stability in DTA/TGA [8]: stable without any weight change or endothermic or exothermic heat until decomposition at 200 °C or higher | change in crystal form [9]: no change in crystal form was observed under any of the conditions | relative stability of crystal forms ([10]; Form-V crystal heated at 205°C for 10 minutes gave Form-III crystal): higher stability than the Form-V crystal | relative stability of crystal forms ([10]; Form-VI crystal heated at 190°C for 10 minutes gave Form-III crystal): higher stability than the Form-VI crystal | relative stability of crystal forms [11]: higher stability than the 1/2 acetonitrile solvate crystal of the p-TsOH salt of the compound A obtained in Example 3
